# Data published in BindingDB's records for doi:10.1016/0960-894X(95)00135-G (1995).
# Assay: In vitro inhibitory activity against human neutrophil leukotriene B4 (LTB4) induced Chemotaxis
row,IC50 [µM],Structure (SMILES)
1,38,"CC(Oc1ccc2c(c1)OC[C@H](Cc1cccnc1)[C@@H]2O)c1ccc2ccccc2n1 (stereo partly drawn) [(3S,4S)-3-Pyridin-3-ylmethyl-7-(1-quinolin-2-yl-ethoxy)-chroman-4-ol]"
2,6.1,"C[C@H](Oc1ccc2c(c1)OC[C@@H](Cc1cccnc1)[C@@H]2O)c1ccc2ccccc2n1 [(3R,4S)-3-Pyridin-3-ylmethyl-7-((S)-1-quinolin-2-yl-ethoxy)-chroman-4-ol]"
3,14,"CC(Oc1ccc2c(c1)OC[C@H](Cc1ccccn1)[C@@H]2O)c1ccc2ccccc2n1 (stereo partly drawn) [(3S,4S)-3-Pyridin-2-ylmethyl-7-(1-quinolin-2-yl-ethoxy)-chroman-4-ol]"

# Continued, molecule first:
row,Structure (SMILES),IC50 [µM]
1,"C[C@@H](Oc1ccc2c(c1)OC[C@@H](Cc1cccnc1)[C@@H]2O)c1ccc2ccccc2n1 [(3R,4S)-3-Pyridin-3-ylmethyl-7-((R)-1-quinolin-2-yl-ethoxy)-chroman-4-ol]",3.4
2,"CC(Oc1ccc2c(c1)OC[C@@H](Cc1ccccn1)[C@@H]2O)c1ccc2ccccc2n1 (stereo partly drawn) [(3R,4S)-3-Pyridin-2-ylmethyl-7-(1-quinolin-2-yl-ethoxy)-chroman-4-ol]",0.22
